This note sets out measurements from PubChem BioAssay AID1259407 (Chemical Carcinogenesis Research Information System (CCRIS), 2018).

Each structure is given as a SMILES string. The source made the active and inactive calls. How the calls were made is not given here.

This series deals with CCRIS mutagenicity, Ames/micronucleus/aberration tests. Nature of the series: CCRIS mutagenicity studies.
The mark [1] stands for this setting: Test System: AMES SALMONELLA TYPHIMURIUM, Strain/Indicator: TA98, Metabolic Activation: NONE, Method: PREINCUBATION
The mark [2] stands for this setting: Test System: AMES SALMONELLA TYPHIMURIUM, Strain/Indicator: TA100, Metabolic Activation: NONE, Method: PREINCUBATION
[3] abbreviates: Test System: AMES SALMONELLA TYPHIMURIUM, Strain/Indicator: TA100, Metabolic Activation: RAT, LIVER, S-9, PHENOBARBITAL AND 5,6-BENZOFLAVONE, Method: PREINCUBATION
The mark [4] stands for this setting: Test System: AMES SALMONELLA TYPHIMURIUM, Strain/Indicator: TA102, Metabolic Activation: NONE, Method: PREINCUBATION
Where [5] appears, read: Test System: AMES SALMONELLA TYPHIMURIUM, Strain/Indicator: TA98, Metabolic Activation: NONE, Method: STANDARD PLATE.
Where [6] appears, read: Test System: AMES SALMONELLA TYPHIMURIUM, Strain/Indicator: TA100, Metabolic Activation: NONE, Method: STANDARD PLATE.

Regarding `O=C1C=CC(=O)C(c2ccccc2)=C1`, the mutagenic call runs as follows: under setting [1], “inactive; negative”; (Test System: AMES SALMONELLA TYPHIMURIUM, Strain/Indicator: TA98, Metabolic Activation: RAT, LIVER, S-9, PHENOBARBITAL AND 5,6-BENZOFLAVONE, Method: PREINCUBATION) “inactive; negative”; under setting [2], “inactive; negative”; under setting [3], “inactive; negative”; under setting [4], “inactive; negative”; (Test System: AMES SALMONELLA TYPHIMURIUM, Strain/Indicator: TA102, Metabolic Activation: RAT, LIVER, S-9, PHENOBARBITAL AND 5,6-BENZOFLAVONE, Method: PREINCUBATION) “inactive; negative”. Besides, the mutagenic call (Test System: AMES SALMONELLA TYPHIMURIUM, Strain/Indicator: TA104, Metabolic Activation: NONE, Method: PREINCUBATION) is “inactive; negative”; the mutagenic call (Test System: AMES SALMONELLA TYPHIMURIUM, Strain/Indicator: TA104, Metabolic Activation: RAT, LIVER, S-9, PHENOBARBITAL AND 5,6-BENZOFLAVONE, Method: PREINCUBATION) was “inactive; negative”; the mutagenic call (Test System: AMES SALMONELLA TYPHIMURIUM, Strain/Indicator: TA2637, Metabolic Activation: NONE, Method: PREINCUBATION) is “inactive; negative”; the mutagenic call (Test System: AMES SALMONELLA TYPHIMURIUM, Strain/Indicator: TA2637, Metabolic Activation: RAT, LIVER, S-9, PHENOBARBITAL AND 5,6-BENZOFLAVONE, Method: PREINCUBATION) was “inactive; negative”; the mutagenic call (Test System: CHINESE HAMSTER V-79, Strain/Indicator: V-79 (HGPRT)/6-THIOGUANINE, Metabolic Activation: NONE) was “inactive; negative”.

For `OCC1CCCO1` (stereo not drawn), the mutagenic call under setting [1] is “inactive; negative”; the mutagenic call (Test System: AMES SALMONELLA TYPHIMURIUM, Strain/Indicator: TA98, Metabolic Activation: RAT, LIVER, S-9, AROCLOR 1254, Method: PREINCUBATION) was “inactive; negative”; the mutagenic call under setting [2] was “inactive; negative”; the mutagenic call (Test System: AMES SALMONELLA TYPHIMURIUM, Strain/Indicator: TA100, Metabolic Activation: RAT, LIVER, S-9, AROCLOR 1254, Method: PREINCUBATION) was “inactive; negative”; the mutagenic call under setting [4] is “inactive; negative”; the mutagenic call (Test System: AMES SALMONELLA TYPHIMURIUM, Strain/Indicator: TA102, Metabolic Activation: RAT, LIVER, S-9, AROCLOR 1254, Method: PREINCUBATION) was “inactive; negative”.

For `[N-]=[N+]=NC[C@@H](O)c1ccccc1`, the mutagenic call (Test System: AMES SALMONELLA TYPHIMURIUM, Strain/Indicator: TA100, Metabolic Activation: RAT, LIVER, S-9, PCB, Method: PREINCUBATION) was “active; positive”.

On to `Clc1ccc2c(c1)oc1ccccc12`, for which the mutagenic call is, setting by setting: under setting [5], “active; positive”; (Test System: AMES SALMONELLA TYPHIMURIUM, Strain/Indicator: TA98, Metabolic Activation: RAT, LIVER, S-9, PHENOBARBITAL AND NAPHTHOFLAVONE, Method: STANDARD PLATE) “active; positive”; under setting [6], “active; positive”; (Test System: AMES SALMONELLA TYPHIMURIUM, Strain/Indicator: TA100, Metabolic Activation: RAT, LIVER, S-9, PHENOBARBITAL AND NAPHTHOFLAVONE, Method: STANDARD PLATE) “active; positive”.

On to `Fc1cc2ccccc2c2ncccc12`, for which the mutagenic call under setting [3] is “active; positive”.

For `Cc1c2ccccc2cc2c1ccc1ccccc12`, the mutagenic call is “active; positive” (Test System: AMES SALMONELLA TYPHIMURIUM, Strain/Indicator: TA98, Method: STANDARD PLATE); “active; positive” (Test System: AMES SALMONELLA TYPHIMURIUM, Strain/Indicator: TA100, Metabolic Activation: RAT, INTACT HEPATOCYTES, AROCLOR 1254, Method: PREINCUBATION); “active; positive” (Test System: AMES SALMONELLA TYPHIMURIUM, Strain/Indicator: TA100, Metabolic Activation: RAT, LIVER, S-9, AROCLOR 1254, Method: STANDARD PLATE); “active; positive” (Test System: AMES SALMONELLA TYPHIMURIUM, Strain/Indicator: TA100, Metabolic Activation: RAT, LIVER, S-9, PHENOBARBITAL, Method: STANDARD PLATE); “active; positive” (Test System: AMES SALMONELLA TYPHIMURIUM, Strain/Indicator: TA100, Metabolic Activation: RAT, NADPH-FORTIFIED HOMOGENIZED HEPATOCYTES, AROCLOR 1254, Method: PREINCUBATION); “active; positive” (Test System: AMES SALMONELLA TYPHIMURIUM, Strain/Indicator: TA100, Metabolic Activation: RAT, SONICATED HEPATOCYTES, AROCLOR 1254, Method: PREINCUBATION). The mutagenic call (Test System: AMES SALMONELLA TYPHIMURIUM, Strain/Indicator: TA100, Method: STANDARD PLATE) is “active; positive”; the mutagenic call (Test System: CHINESE HAMSTER V-79, Strain/Indicator: V-79/8-AZAGUANINE, Metabolic Activation: CELL-MEDIATED, Method: STANDARD PLATE) was “active; positive”; the mutagenic call (Test System: CHINESE HAMSTER V-79, Strain/Indicator: V-79/8-AZAGUANINE, Metabolic Activation: NONE, Method: STANDARD PLATE) is “active; positive”; the mutagenic call (Test System: CHINESE HAMSTER V-79, Strain/Indicator: V-79/OUABAIN, Metabolic Activation: CELL-MEDIATED, Method: STANDARD PLATE) is “active; positive”.

In the case of `CCC(C)(C)c1cc(-n2nc3ccccc3n2)c(O)c(C(C)(C)CC)c1`, the mutagenic call runs as follows: (Test System: AMES SALMONELLA TYPHIMURIUM, Strain/Indicator: TA97, Metabolic Activation: NONE, Method: STANDARD PLATE) “inactive; negative”; (Test System: AMES SALMONELLA TYPHIMURIUM, Strain/Indicator: TA97, Metabolic Activation: S-9, Method: STANDARD PLATE) “inactive; negative”; under setting [5], “inactive; negative”; (Test System: AMES SALMONELLA TYPHIMURIUM, Strain/Indicator: TA98, Metabolic Activation: S-9, Method: STANDARD PLATE) “inactive; negative”; under setting [6], “inactive; negative”; (Test System: AMES SALMONELLA TYPHIMURIUM, Strain/Indicator: TA100, Metabolic Activation: S-9, Method: STANDARD PLATE) “inactive; negative”. In addition, the mutagenic call is “inactive; negative” (Test System: AMES SALMONELLA TYPHIMURIUM, Strain/Indicator: TA102, Metabolic Activation: NONE, Method: STANDARD PLATE); “inactive; negative” (Test System: AMES SALMONELLA TYPHIMURIUM, Strain/Indicator: TA102, Metabolic Activation: S-9, Method: STANDARD PLATE); “inactive; negative” (Test System: E.COLI, Strain/Indicator: WP2 (PKM101), Metabolic Activation: NONE, Method: STANDARD PLATE); “inactive; negative” (Test System: E.COLI, Strain/Indicator: WP2 (PKM101), Metabolic Activation: S-9, Method: STANDARD PLATE).
